This is an account of results in US20220280507A1, “USES OF 5-METHYLTETRAHYDROFOLATE AND ITS COMPOSITION” (Lianyungang Jinkang Hexin Pharmaceutical Co., Ltd., priority 2019, published 2022).

The test system of one assay is alcohol drinking rats. The assay is described as follows: Disappearance and recovery of righting reflex of alcohol drinking rats. In kind it is in vivo, SD rats. The conditions noted are these: 30 min before Erguotou 9 ml·Kg−1, n=6. The protocol: Experiment 1 Effect of 5-methyltetrahydrofolate on disappearance and recovery of righting reflex of alcohol drinking rats.
30 SPF-grade SD rats were chosen in half male and half female, and divided into 5 groups with 6 rats in each group, including normal group, model group, positive drug group (Weihe Liver Protectant), 5-methyltetrahydrofolate administration group (4 mg·Kg−1 medium dose group, 8 mg·Kg−1 high dose group, respectively). After fasting for 12 h, the administration group was given Weihe Liver Protectant at 50 mg·kg−1, 5-methyltetrahydrofolate (Jinkang Hexin product) at 4 mg·Kg−1, 5-methyltetrahydrofolate (Jinkang Hexin product) at 8 mg·Kg−1, respectively. […] The intoxication in rats depends on righting reflex disappearing, that is, cover the head of the rat with gauze, and gently place the rat back down in the animal cage. […] The disappearance time and recovery time of the righting reflex in rats after drinking were recorded.

Assay [1] concerns alcoholic liver damage and fatty liver. The assay is described as follows: Alcoholic fatty liver model, serum TG, TC, SOD, MDA and liver histopathology. Format: in vivo, SD rats. The conditions noted are these: for MDA / SOD: day 61, liquor model; for MDA / SOD / TC / TG: n=16; for Pathological examination of liver: liquor model; for TC / TG: serum day 61, liquor model. The protocol: 96 SPF-grade SD rats were chosen in half female and half male with an average weight of 176-220 g at the beginning of the experiment. According to their weight, they were randomly divided into vehicle control group (purified water, ig), model control group (liquor, 10 ml·Kg−1), positive control group (bicyclol, 50 mg·Kg−1, ig), folic acid calcium salt high-dose group (4 mg·Kg−1), folic acid calcium salt medium-dose group (2 mg·Kg−1), folic acid calcium salt low-dose group (1 mg·Kg−1), in half female and half male, and 16 rats in each group. Purified water was used as a negative control, and bicyclol (place of origin: Beijing Xiehe Pharmaceutical Factory, specification: 25 mg/tablet, batch number: H20040467) was used as a positive control drug. Route of administration: all were administered by oral gavage. Dosage of administration: 1 mg·Kg−1, 2 mg·Kg−1, and 4 mg·Kg−1. Frequency of administration: once a day for 60 consecutive days. Erguotou (batch number: 201603092, specification: 2L, place of origin: Beijing Shunxin Agriculture Co., Ltd.) model establishing method: gavage with diluted 56-degree Erguotou twice a day for 60 consecutive days.
Method of administration: administration started at prescribed doses on the day of modeling for 60 consecutive days and ended at the 60th day. At the same time, rats in each group were weighed every other week during administration period to monitor their body weight changes. On the 61st day, rats were dissected and serum was collected for determination of triglyceride (TG), total cholesterol (TC), malondialdehyde (MDA), superoxide dismutase (SOD) and liver histopathologic examination. The brain tissue of rats was taken out, and hippocampus tissue was separated on ice plate, prepared to homogenate with a mass fraction of 10% with purified water, then the homogenate was centrifuged to obtain supernatant. ELISA was used to detect the levels of inflammatory factors TNF-α and IL-1β in hippocampus tissue with continuous spectrum scanning microplate reader.

Another assay deals with mice after drinking. The conditions noted are these: n=10. As for the experimental part:
Experiment 8 Tail Suspension Test and Swimming Test in Mice after Drinking
Clean-grade male Kunming mice, weighing 18-22 g, were chosen. The test was carried out at 23° C. with a humidity of 50%. The mice ate and drank freely, adapting to the environment for 5 days before the test. Then they were divided into 5 groups: model group, normal group, high-dose 5-MTHF-Ca group, medium-dose 5-MTHF-Ca group and low-dose 5-MTHF-Ca group (16 mg·Kg−1, 8mg·Kg−1, 4mg·Kg−1),
10 mice in each group. The model group was given (by gavage) Erguotou (batch number: 201603092, specification: 2L, place of origin: Beijing Shunxin Agriculture Co., Ltd.) at 18 ml·Kg−1, and calcium folate (Lianyungang Jinkang Hexin Pharmaceutical Co., Ltd.). The high-dose, medium-dose and low-dose groups were also given the solution containing Erguotou and calcium folate. The mice were tested after 24 h. The tail suspension test is carried out by fixing the tail of a mouse so that it is suspended head down in a state of desperately struggling to escape but unable to escape. After a period of time, record the immobility time of the mouse in a desperate state in this environment to observe the therapeutic effect after administration. The head of the mouse suspended upside down was 10 cm from the bottom of the box, and two mice were suspended at a time, which were separated by a partition to avoid collision. The mice were suspended for 10 min, and the accumulated immobility time of the suspended mice was counted within the latter 5 min.

A further assay concerns IL-1β. Put plainly: LPS-induced inflammatory response in astrocytes, IL-1β release (ELISA). Format: cell-based, Kunming mice. The conditions noted are these: culture supernatant, LPS 1 μg·ml-1 + substance 10 μg·ml-1, 24 h, n=6. From the text:
Experiment 9 Inhibition of 5-Methyltetrahydrofolate and Curcumin on LPS-Induced Inflammatory Response in Astrocytes
The cerebral cortex of Kunming mice at 1˜2 d was taken out under aseptic conditions, washed 3 times with cold PBS after removing residual meninges and blood vessels, prepared into single cell suspension by blowing, centrifuged, the supernatant was discarded, and the precipitant was resuspended in AST basic medium (high-sugar DMEM containing 10% FBS). The suspension was inoculated into a culture flask coated with poly-L-lysine (0.1 mg/ml), and cultured in a CO2 incubator. After 24 h, tissue debris and non-adherent cells were removed by replacing the medium. Afterwards, the medium was replaced every 3 days until the cells reached 80% confluence, then the flask was placed on a constant temperature rotary shaker, where the suspension was centrifuged at 180 r/min, 37° C. for 18 h to remove oligodendrocytes and microglia from the upper layer. Then trypsin digestion was used for subculture. […]
LPS (1 μg·ml-1), LPS (1 μg·ml-1)+curcumin (10 μg·ml-1), LPS (1 μg·ml-1)+5-MTHF-Ca (10 μg·ml-1); experimental group: LPS (1 μg·ml-1)+curcumin (5 μg·ml-1)+5-MTHF-Ca (5 μg·ml-1). After 24 h, the culture supernatant was collected, and the cytokines IL-6, IL-1β and TNF-α were detected by ELISA.
A general note: An ELISA detects its analyte on a solid surface through an enzyme-linked reagent.

Where two headings read alike, the source gives them in different places.

For the compound `CN1c2c([nH]c(N)nc2=O)NCC1CNc1ccc(C(=O)N[C@@H](CCC(=O)O)C(=O)O)cc1` (stereo partly drawn) [5-methyltetrahydrofolate, N-[4-[[(2-amino-1,4,5,6,7,8-hexahydro-4-oxo-5-methyl-(6S), -(6R), and (6R,S)-pteridyl)methyl)amino)toluoyl-glutamic acid], the “Disappearance time (righting reflex)” value is reported as 30.1 ± 14.4 min in the assay with alcohol drinking rats (4 mg·Kg−1 (medium)) and 42.3 ± 15.6 min in the assay with alcohol drinking rats (8 mg·Kg−1 (high)). Besides, the “Recovery time (righting reflex)” value is 78.5 ± 14.5 min in the assay on alcohol drinking rats (4 mg·Kg−1 (medium)) and 64.1 ± 14.5 min with alcohol drinking rats (8 mg·Kg−1 (high)).

As to 5-methyltetrahydrofolate calcium, the MDA in assay [1] (1 mg·kg−1·d−1 ig 60 d) is listed as 45.20 ± 8.17 nmol/mgprot; in assay [1] (2 mg·kg−1·d−1 ig 60 d), 42.17 ± 8.65 nmol/mgprot; in assay [1] (4 mg·kg−1·d−1 ig 60 d), 47.96 ± 10.28 nmol/mgprot. Further, the SOD in assay [1] (1 mg·kg−1·d−1 ig 60 d) was determined as 253.20 ± 24.66 U/mgprot; in assay [1] (2 mg·kg−1·d−1 ig 60 d) it was 257.41 ± 31.28 U/mgprot; in assay [1] (4 mg·kg−1·d−1 ig 60 d) it was 248.87 ± 34.64 U/mgprot. Further, the “Pathological examination of liver” value in assay [1] (high-dose group 4 mg·Kg−1 ig 60 d) is “no hyperplasia of interstitial connective tissue and fatty degeneration of hepatocytes”; in assay [1] (low-dose group 1 mg·Kg−1 ig 60 d) it was “a few fatty vacuoles in hepatocytes, and no obvious hyperplasia of interstitial connective tissue”; in assay [1] (medium-dose group 2 mg·Kg−1 ig 60 d) it was “no hyperplasia of interstitial connective tissue and fatty degeneration of hepatocytes”. The results for the TC in assay [1] (1 mg·kg−1·d−1 ig 60 d), in assay [1] (2 mg·kg−1·d−1 ig 60 d) and in assay [1] (4 mg·kg−1·d−1 ig 60 d) were 1.42 ± 0.36 mmol/L, 1.50 ± 0.37 mmol/L and 1.47 ± 0.44 mmol/L, respectively. The TG was 1.08 ± 0.34 mmol/L in assay [1] (1 mg·kg−1·d−1 ig 60 d), 1.03 ± 0.50 mmol/L in assay [1] (2 mg·kg−1·d−1 ig 60 d) and 1.04 ± 0.43 mmol/L in assay [1] (4 mg·kg−1·d−1 ig 60 d). In addition, the Suspension immobility time in the assay on mice after drinking (high dose 16 mg·Kg−1 with Erguotou 18 ml·Kg−1, tested after 24 h) was determined as 63.53 ± 2.98 S; with mice after drinking (low dose 4 mg·Kg−1 with Erguotou 18 ml·Kg−1, tested after 24 h) it was 72.42 ± 4.52 S; in the assay on mice after drinking (medium dose 8 mg·Kg−1 with Erguotou 18 ml·Kg−1, tested after 24 h) it was 68.32 ± 3.46 S. For the same compound, the IL-1β in the assay with IL-1β worked out at 721.45 ± 8.79 pg/mL.
